Molecular target: human recombinant LSD1 protein (Homo sapiens (Human), UniProt O60341)
Test: In vitro enzyme inhibition activity assay - LSD1 (Lance Ultra TR-FRET)
Assay type: biochemical
Settings: all compounds tested in the form of hydrochloride
Description: The purpose of this experiment was to test the in vitro inhibitory activity of the compounds against LSD1. The human recombinant LSD1 protein used in the experiment was purchased from Active Motif, and the enzyme level activity testing assay of LSD1 was performed using the Lance Ultra LSD1 Histone H3 Lysine 4 Demethylase Assay Kit (PerkinElmer). Tris-buffer (50 mMTris-HCl, 50 mMNaCl, 0.01% Tween-20, 1 mM DTT, 10 μM FAD, 10% glycerol, pH 9.0) was first prepared, and after preparation, the LSD1 fractions required for test were placed in this buffer and incubated for one hour at room temperature; the fractions included 4 μL of substrate solution ([…] Bio-H3K4me2, 1-24aa), 4 μL of enzyme solution (4 nM LSD1), and 2 μL of inhibitor in a 384-well microplate. After these operations, another 5 μL of assay mixture containing Eu-labeled H3K4me0 antibody and ULight-Streptavidin anti-biotin protein was added to the system, after which the fluorescence intensity of the components to be tested was detected by using Envision (PerkinElmer) in TR-FRET mode (excitation wavelength of 320 nm, emission wavelength of 620 nm). The test was repeated a total of three times to minimize errors. The final IC50 data were calculated by the software GraphPad Prism 5, and finally the sigmoidal dose-response (variable slope) method was used to obtain the fitted curve.
The LSD1 inhibitory activities of representative compounds of the present application as well as the positive control compound CC90011 were provided in Table 2. All compounds were tested in the form of hydrochloride.

SMILES	IC50 [nM]
Cc1nn(C)c(C)c1-c1ccc2nc(NC[C@H]3CCNC3)nc(-c3ccc(C#N)c(F)c3)c2c1 [Compound 49, (S)-2-fluoro-4-(2-((pyrrolidin-3-ylmethyl)amino)-6-(1,3,5-trimethyl-1H-pyrazol-4-yl)quinazolin-4-yl)benzonitrile]	30 to 300
N#Cc1ccc(-c2nc(NC[C@H]3CCNC3)nc3ccc(-c4c(F)cccc4F)cc23)cc1F [Compound 50, (S)-4-(6-(2,6-difluorophenyl)-2-((pyrrolidin-3-ylmethyl)amino)quinazolin-4-yl)-2-fluorobenzonitrile]	30 to 300
N#Cc1ccc(-c2nc(NC[C@H]3CCNC3)nc3ccc(-c4c(Cl)cccc4Cl)cc23)cc1F [Compound 51, (S)-4-(6-(2,6-dichlorophenyl)-2-((pyrrolidin-3-ylmethyl)amino)quinazolin-4-yl)-2-fluorobenzonitrile]	≤ 30
N#Cc1ccc(-c2nc(NC[C@H]3CCNC3)nc3ccc(-c4c(Cl)cccc4C(F)(F)F)cc23)cc1F [Compound 52]	30 to 300
Cc1cccc(Cl)c1-c1ccc2nc(NC[C@H]3CCNC3)nc(-c3ccc(C#N)c(F)c3)c2c1 [Compound 53]	≤ 30
N#Cc1ccc(-c2nc(NC[C@H]3CCNC3)nc3ccc(-c4c(F)cccc4C(F)(F)F)cc23)cc1F [Compound 54, (S)-4-(6-(2-fluoro-6-(trifluoromethylphenyl)-2-(pyrrolidin-3-ylmethyl)amino)quinazolin-4-yl)-2-fluorobenzonitrile]	≤ 30
N#Cc1ccc(-c2nc(NC[C@H]3CCNC3)nc3ccc(-c4c(F)cccc4Cl)cc23)cc1F [Compound 55]	≤ 30
N#Cc1ccc(-c2nc(NC[C@H]3CCNC3)nc3ccc(-c4cc(F)ccc4C(F)(F)F)cc23)cc1F [Compound 56, (S)-4-(6-(5-fluoro-2-(trifluoromethyl)-2-(pyrrolidin-3-ylmethyl)amino)quinazolin-4-yl)-2-fluorobenzonitrile]	30 to 300
N#Cc1ccc(-c2nc(NC[C@H]3CCNC3)nc3ccc(-c4cccc(F)c4C(F)(F)F)cc23)cc1F [Compound 57, (S)-4-(6-(3-fluoro-2-(trifluoromethylphenyl)-2-(pyrrolidin-3-ylmethyl)amino)quinazolin-4-yl)-2-fluorobenzonitrile]	≤ 30
Cc1cccc(-c2ccc3nc(NC[C@H]4CCNC4)nc(-c4ccc(C#N)c(F)c4)c3c2)c1C(F)(F)F [Compound 59, (S)-2-fluoro-4-(6-(3-methyl-2-(trifluoromethyl)phenyl)-2-((pyrrolidin-3-ylmethyl)amino)quinazolin-4-yl)benzonitrile]	30 to 300
N#Cc1ccc(-c2nc(NC[C@H]3CCNC3)nc3ccc(-c4c(F)ccc(O)c4F)cc23)cc1F [Compound 60]	30 to 300
N#Cc1ccc(-c2nc(NC[C@H]3CCNC3)nc3ccc(-c4cccc(O)c4F)cc23)cc1F [Compound 61, (S)-2-fluoro-4-(6-(2-fluoro-3-hydroxyphenyl)-2-((pyrrolidin-3-ylmethyl)amino)quinazolin-4-yl)benzonitrile]	30 to 300
CC1(N)CCN(c2nc(-c3ccc(C#N)c(F)c3)c3cc(-c4c(F)cccc4C(F)(F)F)ccc3n2)CC1 [Compound 63, 4-(2-(4-Amino-4-methylpiperidin-1-yl)-6-(2-fluoro-6-(trifluoromethyl)phenyl)quinazolin-4-yl)-2-fluorobenzonitrile]	≤ 30
N#Cc1ccc(-c2nc(N3CC4C(N)C4C3)nc3ccc(-c4c(F)cccc4C(F)(F)F)cc23)cc1F (centres unmarked) [Compound 65, 4-(2-(6-Amino-3-azabicyclo[3.1.0]hexan-3-yl)-6-(2-fluoro-6-(trifluoromethyl)phenyl)quinazolin-4-yl)-2-fluorobenzonitrile]	30 to 300
N#Cc1ccc(-c2nc(N3CC[C@H](N)[C@H](F)C3)nc3ccc(-c4c(F)cccc4C(F)(F)F)cc23)cc1F [Compound 67, 4-(2-((3R,4S)-4-amino-3-fluoropiperidin-1-yl)-6-(2-fluoro-6-(trifluoromethyl)phenyl)quinazolin-4-yl)-2-fluorobenzonitrile]	≤ 30
C[C@@H]1CN(c2nc(-c3ccc(C#N)c(F)c3)c3cc(-c4c(F)cccc4C(F)(F)F)ccc3n2)CC[C@H]1N [Compound 68, 4-(2-((3R,4R)-4-amino-3-methylpiperidin-1-yl)-6-(2-fluoro-6-(trifluoromethyl)phenyl)quinazolin-4-yl)-2-fluorobenzonitrile]	≤ 30
N#Cc1ccc(-c2nc(N3C4CCC3CC(N)C4)nc3ccc(-c4c(F)cccc4C(F)(F)F)cc23)cc1F (centres unmarked) [Compound 69, 4-(2-(3-amino-8-azabicyclo[3.2.1]octan-8-yl)-6-(2-fluoro-6-(trifluoromethyl)phenyl)quinazolin-4-yl)-2-fluorobenzonitrile]	≤ 30
CC1(C)CN(c2nc(-c3ccc(C#N)c(F)c3)c3cc(-c4c(F)cccc4C(F)(F)F)ccc3n2)CCC1N (centres unmarked) [Compound 71, 4-(2-(4-amino-3,3-dimethylpiperidin-1-yl)-6-(2-fluoro-6-(trifluoromethyl)phenyl)quinazolin-4-yl)-2-fluorobenzonitrile]	≤ 30
N#Cc1ccc(-c2nc(N3CCC4NCCC4C3)nc3ccc(-c4c(F)cccc4C(F)(F)F)cc23)cc1F (centres unmarked) [Compound 76, 2-Fluoro-4-(6-(2-fluoro-6-(trifluoromethyl)phenyl)-2-(octahydro-5H-pyrrolo[3,2-c]pyridin-5-yl)quinazolin-4-yl)benzonitrile]	≤ 30
N#Cc1ccc(-c2nc(N3CCC4(CCCN4)CC3)nc3ccc(-c4c(F)cccc4C(F)(F)F)cc23)cc1F [Compound 77, 2-Fluoro-4-(6-(2-fluoro-6-(trifluoromethyl)phenyl)-2-(1,8-diazaspiro[4.5]dec-8-yl)quinazolin-4-yl)benzonitrile]	≤ 30

Second part, the molecule after the results:

IC50 [nM]	SMILES
≤ 30	CNC1CCN(c2nc(-c3ccc(C#N)c(F)c3)c3cc(-c4c(F)cccc4C(F)(F)F)ccc3n2)CC1 [Compound 66, 2-Fluoro-4-(6-(2-fluoro-6-(trifluoromethyl)phenyl)-2-(4-(methylamino)piperidin-1-yl)quinazolin-4-yl)benzonitrile]
≤ 30	N#Cc1ccc(-c2nc(N3CCCC(N)C3)nc3ccc(-c4c(F)cccc4C(F)(F)F)cc23)cc1F (centres unmarked) [Compound 70, 4-(2-(3-aminopiperidin-1-yl)-6-(2-fluoro-6-(trifluoromethyl)phenyl)quinazolin-4-yl)-2-fluorobenzonitrile]
≤ 30	N#Cc1ccc(-c2nc(N3CCCC(N)CC3)nc3ccc(-c4c(F)cccc4C(F)(F)F)cc23)cc1F (centres unmarked) [Compound 72, 4-(2-(4-aminoazepan-1-yl)-6-(2-fluoro-6-(trifluoromethyl)phenyl)quinazolin-4-yl)-2-fluorobenzonitrile]
≤ 30	CN(C)C1CCN(c2nc(-c3ccc(C#N)c(F)c3)c3cc(-c4c(F)cccc4C(F)(F)F)ccc3n2)CC1 [Compound 73, 4-(2-(4-(Dimethylamino)piperidin-1-yl)-6-(2-fluoro-6-(trifluoromethyl)phenyl)quinazolin-4-yl)-2-fluorobenzonitrile]
≤ 30	N#Cc1ccc(-c2nc(N3CCC[C@@H](N)C3)nc3ccc(-c4c(F)cccc4C(F)(F)F)cc23)cc1F [Compound 74, (R)-4-(2-(3-aminopiperidin-1-yl)-6-(2-fluoro-6-(trifluoromethyl)phenyl)quinazolin-4-yl)-2-fluorobenzonitrile]
30 to 300	N#Cc1ccc(-c2nc(N3CCC[C@H](N)C3)nc3ccc(-c4c(F)cccc4C(F)(F)F)cc23)cc1F [Compound 75, (S)-4-(2-(3-aminopiperidin-1-yl)-6-(2-fluoro-6-(trifluoromethyl)phenyl)quinazolin-4-yl)-2-fluorobenzonitrile]
≤ 30	N#Cc1ccc(-c2nc(N3CCC(N)CC3)nc3cc(F)c(-c4ccccc4F)cc23)cc1F [Compound 78, 4-(2-(4-aminopiperidin-1-yl)-7-fluoro-6-(2-fluorophenyl)quinazolin-4-yl)-2-fluorobenzonitrile]
30 to 300	N#Cc1ccc(-c2nc(N3CCC(N)CC3)nc3cc(F)c(-c4ccccc4C(F)(F)F)cc23)cc1F [Compound 79, 4-(2-(4-Aminopiperidin-1-yl)-7-fluoro-6-(2-(trifluoromethyl)phenyl)quinazolin-4-yl)-2-fluorobenzonitrile]
≤ 30	N#Cc1ccc(-c2nc(N3CCC(N)CC3)nc3c(F)cc(-c4ccccc4C(F)(F)F)cc23)cc1F [Compound 80, 4-(2-(4-aminopiperidin-1-yl)-8-fluoro-6-(2-trifluoromethylphenyl)quinazolin-4-yl)-2-fluorobenzonitrile]
30 to 300	N#Cc1ccc(-c2nc(N3CCC(N)CC3)nc3c(F)cc(-c4ccccc4F)cc23)cc1F [Compound 81]
≤ 30	N#Cc1ccc(-c2nc(N3CCC(N)CC3)nc3c(F)cc(-c4c(F)cccc4C(F)(F)F)cc23)cc1F [Compound 82]
30 to 300	N#Cc1ccc(-c2nc(N3CC[C@@H](N)[C@@H](F)C3)nc3ccc(-c4c(F)cccc4C(F)(F)F)cc23)cc1F [Compound 83, 4-(2-((3S,4R)-4-amino-3-fluoropiperidin-1-yl)-6-(2-fluoro-6-(trifluoromethyl)phenyl)quinazolin-4-yl)-2-fluorobenzonitrile]

Reference: US20250042862A1, “AROMATIC HETEROCYCLIC COMPOUND AND APPLICATION THEREOF” (Shanghai Institute of Materia Medica, Chinese Academy of …, priority 2021, published 2025)
